Data taken from ChEMBL document CHEMBL1135777, “Three-dimensional quantitative structure-activity relationships of mazindol analogues at the dopamine transporter” (J Med Chem, 2002).

Target: Sodium-dependent dopamine transporter (Rattus norvegicus, UniProt P23977)
Test: Ability to displace [3H]WIN-35428 from dopamine transporter in rat caudate putamen tissue
Assay type: tissue-based

Sequence of Sodium-dependent dopamine transporter (P23977 whole entry): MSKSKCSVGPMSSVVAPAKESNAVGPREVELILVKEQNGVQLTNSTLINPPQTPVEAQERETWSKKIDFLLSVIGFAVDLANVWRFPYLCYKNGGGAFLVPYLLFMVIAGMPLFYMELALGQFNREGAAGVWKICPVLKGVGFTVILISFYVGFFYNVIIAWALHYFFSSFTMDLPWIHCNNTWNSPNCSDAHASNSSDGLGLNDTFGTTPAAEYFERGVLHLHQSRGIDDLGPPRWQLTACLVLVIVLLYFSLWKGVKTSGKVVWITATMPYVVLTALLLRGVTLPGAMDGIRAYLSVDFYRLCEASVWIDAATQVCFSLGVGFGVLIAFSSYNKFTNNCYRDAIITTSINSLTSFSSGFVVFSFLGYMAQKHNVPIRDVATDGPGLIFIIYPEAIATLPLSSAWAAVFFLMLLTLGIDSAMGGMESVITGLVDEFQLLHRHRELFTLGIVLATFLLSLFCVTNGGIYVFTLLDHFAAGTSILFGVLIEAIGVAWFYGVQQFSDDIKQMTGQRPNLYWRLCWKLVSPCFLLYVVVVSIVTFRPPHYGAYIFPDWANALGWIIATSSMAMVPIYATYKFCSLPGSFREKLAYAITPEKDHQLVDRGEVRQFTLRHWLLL

| SMILES | IC50 [µM] |
| --- | --- |
| CC1(C2(O)c3ccccc3C3=NCCN32)CCCCC1 (configuration not stated) | 3.5 |
| OC1(C/C=C/c2ccccc2)c2ccccc2C2=NCCN21 (configuration not stated) | 9.3 |
| Clc1ccc(Oc2ccccc2C2=NCCN2)cc1 | 0.19 |
| OC1(c2ccc(Cl)cc2)c2cccc3cccc(c23)C2=NCCCN21 (configuration not stated) | 0.042 |
| COc1ccc(C2(O)c3ccccc3C3=NCCCN32)cc1OC (configuration not stated) | 0.087 |
| OC1(c2ccc(Cl)cc2)c2ccccc2C2=NCCCN21 (configuration not stated) | 0.001 |
| OC1(c2ccc(Cl)cc2)c2ccc3ccccc3c2C2=NCCN21 (configuration not stated) | 0.016 |
| OC1(c2ccc(C(F)(F)F)cc2)c2ccccc2C2=NCCN21 (configuration not stated) | 0.29 |
| COc1ccc(C2(O)c3ccccc3C3=NCCN32)cc1OC (configuration not stated) | 6.9 |
| OC1(c2ccc(CN3CCCCC3)cc2)c2ccccc2C2=NCCCN21 (configuration not stated) | 1.2 |
| Oc1ccc(C2(O)c3ccccc3C3=NCCCN32)cc1 (configuration not stated) | 0.0034 |
| O=C(c1ccc(Cl)cc1)c1cccc(C2=NCCN2)c1 | 2.2 |
| C=CCOc1ccc(C2(O)c3ccccc3C3=NCCCN32)cc1 (configuration not stated) | 0.072 |
| CC1(C)COC(c2cccc(C(O)c3ccc(Cl)cc3)c2)=N1 (configuration not stated) | 16 |
| OC(c1ccc(Cl)cc1)c1ccccc1C1=NCCN1 (stereo in doubt; 54) | 2.7 |
| CC1(C)COC(c2ccc(C(=O)c3ccc(Cl)cc3)cc2)=N1 | 1.9 |
| COc1ccc(C2(O)c3ccccc3C3=NCCCN32)cc1 (configuration not stated) | 0.0025 |
| OC1(c2ccccn2)c2ccccc2C2=NCCN21 (configuration not stated) | 3.7 |
| CC1(C)COC(c2ccccc2C(=O)c2ccc(Cl)cc2)=N1 | 0.56 |
| O=S(=O)(c1ccc(Cl)cc1)c1ccccc1C1=NCCN1 | 6.5 |
| COC(=O)c1ccc(C2(O)c3ccccc3C3=NCCN32)cc1 (configuration not stated) | 3.3 |

| SMILES | IC50 [µM] |
| --- | --- |
| OC1(C23C[C@H]4C[C@@H](C2)C[C@@H](C3)C4)c2ccccc2C2=NCCN21 (some centres not stated) | 4.9 |
| Clc1ccc(Cc2ccccc2C2=NCCN2)cc1 | 4 |
| OC1CN=C2c3ccccc3C(O)(c3ccc(Cl)cc3)N2C1 (configuration not stated) | 0.01 |
| [O-][S+](c1ccc(Cl)cc1)c1ccccc1C1=NCCN1 (configuration not stated) | 7.3 |
| OC1(c2ccc(COc3ccccc3)cc2)c2ccccc2C2=NCCN21 (configuration not stated) | 0.72 |
| OC1(c2ccc3ccccc3c2)c2ccc3ccccc3c2C2=NCCN21 (configuration not stated) | 0.038 |
| OC1(c2ccncc2)c2ccccc2C2=NCCN21 (configuration not stated) | 0.063 |
| CC(C)(C)C1(O)c2ccccc2C2=NCCN21 (configuration not stated) | 9.5 |
| OC1(c2ccc(OCc3ccccc3)cc2)c2ccccc2C2=NCCCN21 (configuration not stated) | 0.1 |
| OC1(c2cccc(C(F)(F)F)c2)c2ccccc2C2=NCCN21 (configuration not stated) | 0.23 |
| OC1(c2ccc(Cl)cc2)c2ccccc2C2=N[C@@H]3CCCC[C@H]3N21 (some centres not stated) | 0.034 |
| CN(C)Cc1ccc(C2(O)c3ccccc3C3=NCCN32)cc1 (configuration not stated) | 2.8 |
| Cc1ccc(C2(O)c3ccccc3C3=NCCN32)cc1 (configuration not stated) | 0.093 |
| OC(c1ccc(Cl)cc1)c1ccc(C2=NCCN2)cc1 (configuration not stated) | 1.6 |
| OC1(c2cccnc2)c2ccccc2C2=NCCN21 (configuration not stated) | 0.64 |
| Cn1ccnc1-c1ccccc1C(=O)c1ccc(Cl)cc1 | 4.3 |
| OC1(c2ccc3ccccc3c2)c2ccccc2C2=NCCN21 (configuration not stated) | 0.023 |
| OC(c1ccc(Cl)cc1)c1ccccc1C1=NCCN1 (stereo in doubt; 53) | 0.19 |
| Clc1ccc(Sc2ccccc2C2=NCCN2)cc1 | 0.32 |
| O=C(c1ccc(Cl)cc1)c1ccccc1-c1ncc[nH]1 | 2.8 |
| OC1(c2ccc(Cl)cc2)c2ccc3ccccc3c2C2=NCCCN21 (configuration not stated) | 0.037 |
